From PubChem BioAssay AID1963436 (Molecular Pharmacology Branch, DTP, NCI, 2024)

System: OVCAR-5 complex spheroid (HUVEC/MSC), viability % T/C
Assay: Anticancer human tumor OVCAR-5 cell line growth inhibition [Asc];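 also: spheroids exposed to agents for 7 days before readout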;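 as to viability, T/C: 100% = DMSO vehicle-treated wells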
Details: for IC50: curve of first compound; for viability, T/C: stronger effect = lower value
How it was run: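 Complex spheroids combining tumor cells with HUVEC endothelial cells and human MSCs, at 37 degrees C, 5% CO2; agents tested alone or combined, half-log dilutions from at or near clinical Cmax, or 10 microM if Cmax unknown.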

[1] = second compound 0.03 µM, first compound 0.00316 µM
[2] = second compound 0.03 µM, first compound 0.01 µM
[3] = second compound 0.03 µM, first compound 0.0316 µM
[4] = second compound 0.03 µM, first compound 0.1 µM
[5] = second compound 0.0949 µM, first compound 0.00316 µM
[6] = second compound 0.0949 µM, first compound 0.01 µM
[7] = second compound 0.0949 µM, first compound 0.0316 µM
[8] = second compound 0.0949 µM, first compound 0.1 µM
[9] = second compound 0.3 µM, first compound 0.00316 µM
[10] = second compound 0.3 µM, first compound 0.01 µM
[11] = second compound 0.3 µM, first compound 0.0316 µM
[12] = second compound 0.3 µM, first compound 0.1 µM
[13] = second compound 0.949 µM, first compound 0.00316 µM
[14] = second compound 0.949 µM, first compound 0.01 µM
[15] = second compound 0.949 µM, first compound 0.0316 µM
[16] = second compound 0.949 µM, first compound 0.1 µM
[17] = second compound 3 µM, first compound 0.00316 µM
[18] = second compound 3 µM, first compound 0.01 µM
[19] = second compound 3 µM, first compound 0.0316 µM
[20] = second compound 3 µM, first compound 0.1 µM

Compound: COc1c(OCCCN2CCOCC2)ccc2c3n(c(=NC(=O)c4cnc(N)nc4)nc12)CCN3 + CCN1C(C(=O)NC23CCC(C(=O)O)(CC2)CC3)C(c2cccc(Cl)c2F)C2(C(=O)Nc3cc(Cl)ccc32)C12CCCCC2
- IC50 (second compound 0.03 µM): 36.4 nM
- IC50 (second compound 0.0949 µM): 29.5 nM
- IC50 (second compound 0.3 µM): 44.4 nM
- IC50 (second compound 0.949 µM): 38.1 nM
- IC50 (second compound 3 µM): 34.1 nM
- viability, T/C [1]: 82.4%
- viability, T/C [2]: 79.6%
- viability, T/C [3]: 49.8%
- viability, T/C [4]: 29.9%
- viability, T/C (second compound 0.03 µM, first compound 0.316 µM): 20%
- viability, T/C (second compound 0.03 µM, first compound 1 µM): 11.9%
- viability, T/C [5]: 91.6%
- viability, T/C [6]: 75.8%
- viability, T/C [7]: 46.3%
- viability, T/C [8]: 28.1%
- viability, T/C (second compound 0.0949 µM, first compound 0.316 µM): 17.8%
- viability, T/C (second compound 0.0949 µM, first compound 1 µM): 9.62%
- viability, T/C [9]: 87.8%
- viability, T/C [10]: 82.3%
- viability, T/C [11]: 56.6%
- viability, T/C [12]: 31.1%
- viability, T/C (second compound 0.3 µM, first compound 0.316 µM): 17.8%
- viability, T/C (second compound 0.3 µM, first compound 1 µM): 10.5%
- viability, T/C [13]: 79.4%
- viability, T/C [14]: 75.1%
- viability, T/C [15]: 54.8%
- viability, T/C [16]: 24.8%
- viability, T/C (second compound 0.949 µM, first compound 0.316 µM): 17.3%
- viability, T/C (second compound 0.949 µM, first compound 1 µM): 8.43%
- viability, T/C [17]: 89.7%
- viability, T/C [18]: 83.9%
- viability, T/C [19]: 51%
- viability, T/C [20]: 22%
- viability, T/C (second compound 3 µM, first compound 0.316 µM): 15.2%
- viability, T/C (second compound 3 µM, first compound 1 µM): 8.71%

Compound: NC(=O)C(=Cn1cnc(-c2cc(C(F)(F)F)cc(C(F)(F)F)c2)n1)c1cncnc1 + CCN1C(C(=O)NC23CCC(C(=O)O)(CC2)CC3)C(c2cccc(Cl)c2F)C2(C(=O)Nc3cc(Cl)ccc32)C12CCCCC2
- IC50 (second compound 0.03 µM): 299 nM
- IC50 (second compound 0.0949 µM): > 300 nM
- IC50 (second compound 0.3 µM): 256 nM
- IC50 (second compound 0.949 µM): > 300 nM
- IC50 (second compound 3 µM): 216 nM
- viability, T/C (second compound 0.03 µM, first compound 0.000949 µM): 95.8%
- viability, T/C (second compound 0.03 µM, first compound 0.003 µM): 85.5%
- viability, T/C (second compound 0.03 µM, first compound 0.00949 µM): 82.1%
- viability, T/C (second compound 0.03 µM, first compound 0.03 µM): 76.5%
- viability, T/C (second compound 0.03 µM, first compound 0.0949 µM): 71.2%
- viability, T/C (second compound 0.03 µM, first compound 0.3 µM): 48.1%
- viability, T/C (second compound 0.0949 µM, first compound 0.000949 µM): 93.9%
- viability, T/C (second compound 0.0949 µM, first compound 0.003 µM): 99.9%
- viability, T/C (second compound 0.0949 µM, first compound 0.00949 µM): 81.9%
- viability, T/C (second compound 0.0949 µM, first compound 0.03 µM): 67.3%
- viability, T/C (second compound 0.0949 µM, first compound 0.0949 µM): 67.8%
- viability, T/C (second compound 0.0949 µM, first compound 0.3 µM): 48.2%
- viability, T/C (second compound 0.3 µM, first compound 0.000949 µM): 79.1%
- viability, T/C (second compound 0.3 µM, first compound 0.003 µM): 95.8%
- viability, T/C (second compound 0.3 µM, first compound 0.00949 µM): 86.9%
- viability, T/C (second compound 0.3 µM, first compound 0.03 µM): 72%
- viability, T/C (second compound 0.3 µM, first compound 0.0949 µM): 70.2%
- viability, T/C (second compound 0.3 µM, first compound 0.3 µM): 46.7%
- viability, T/C (second compound 0.949 µM, first compound 0.000949 µM): 103%
- viability, T/C (second compound 0.949 µM, first compound 0.003 µM): 108%
- viability, T/C (second compound 0.949 µM, first compound 0.00949 µM): 87.4%
- viability, T/C (second compound 0.949 µM, first compound 0.03 µM): 81.4%
- viability, T/C (second compound 0.949 µM, first compound 0.0949 µM): 66.2%
- viability, T/C (second compound 0.949 µM, first compound 0.3 µM): 53.3%
- viability, T/C (second compound 3 µM, first compound 0.000949 µM): 98.5%
- viability, T/C (second compound 3 µM, first compound 0.003 µM): 96.7%
- viability, T/C (second compound 3 µM, first compound 0.00949 µM): 80%
- viability, T/C (second compound 3 µM, first compound 0.03 µM): 69.7%
- viability, T/C (second compound 3 µM, first compound 0.0949 µM): 61.8%
- viability, T/C (second compound 3 µM, first compound 0.3 µM): 45.4%

Compound: NC1CCC(NC2CC2c2ccccc2)CC1 (stereo not given) + CCN1C(C(=O)NC23CCC(C(=O)O)(CC2)CC3)C(c2cccc(Cl)c2F)C2(C(=O)Nc3cc(Cl)ccc32)C12CCCCC2
- IC50 (second compound 0.03 µM): > 100 nM
- IC50 (second compound 0.0949 µM): > 100 nM
- IC50 (second compound 0.3 µM): > 100 nM
- IC50 (second compound 0.949 µM): > 100 nM
- IC50 (second compound 3 µM): > 100 nM
- viability, T/C (second compound 0.03 µM, first compound 0.000316 µM): 98.4%
- viability, T/C (second compound 0.03 µM, first compound 0.001 µM): 90.7%
- viability, T/C [1]: 88.6%
- viability, T/C [2]: 85.9%
- viability, T/C [3]: 97.3%
- viability, T/C [4]: 89.8%
- viability, T/C (second compound 0.0949 µM, first compound 0.000316 µM): 89.9%
- viability, T/C (second compound 0.0949 µM, first compound 0.001 µM): 100%
- viability, T/C [5]: 88.5%
- viability, T/C [6]: 82.5%
- viability, T/C [7]: 93%
- viability, T/C [8]: 85.7%
- viability, T/C (second compound 0.3 µM, first compound 0.000316 µM): 89.9%
- viability, T/C (second compound 0.3 µM, first compound 0.001 µM): 90.9%
- viability, T/C [9]: 93.2%
- viability, T/C [10]: 77.5%
- viability, T/C [11]: 94.3%
- viability, T/C [12]: 97.3%
- viability, T/C (second compound 0.949 µM, first compound 0.000316 µM): 89.4%
- viability, T/C (second compound 0.949 µM, first compound 0.001 µM): 97.9%
- viability, T/C [13]: 97.6%
- viability, T/C [14]: 88.9%
- viability, T/C [15]: 85.5%
- viability, T/C [16]: 95.2%
- viability, T/C (second compound 3 µM, first compound 0.000316 µM): 102%
- viability, T/C (second compound 3 µM, first compound 0.001 µM): 99.6%
- viability, T/C [17]: 105%
- viability, T/C [18]: 83.7%
- viability, T/C [19]: 89.5%
- viability, T/C [20]: 91.5%
